One molecule from patent US20250262336A1, “[177LU] LUTETIUM-PSMA I&T COMPOSITION AND DOSIMETRY, KIT, METHOD OF MAKING, AND METHOD OF USING THEREOF” (Curium US LLC, priority 2023, published 2025) can be followed below.

A short description of the series: Cycle 1 plasma PK (gamma counting of plasma, bi-exponential fit). The format is in vivo, human. Here is the method:
Additionally, for PK assessment, whole blood samples were collected at six timepoints (Pre-Infusion, 1 h, 4 h, 24 h, 48 h, and 168 h) and processed to extract plasma. All plasma samples were gamma counted locally for analysis of pharmacokinetics.
PK plasma samples were collected at pre-Infusion, 1 h, 4 h, 24 h, 48 h, and 168 h, and counted for radioactivity. Blood samples were first centrifuged to extract plasma, and then the radioactivity in plasma was counted in a gamma counter.
Whole blood samples were collected as detailed in the protocol Schedule of Events i.e. pre-injection, and then at 1 h, 4 h, 24 h, 48 h, and 168 h post-injection. The samples were first centrifuged to separate plasma, and the radioactivity in the plasma was then measured using a gamma counter. Plasma concentrations were subsequently fitted with a bi-exponential function to derive outcome parameters such as the half-life and clearance rate of the radiopharmaceutical in the plasma.
For each sample, collect sufficient sample volume for triplicate aliquots to meet the measurement requirements of your institution's gamma counter and perform measurements according to standard procedure. Blood will be processed and plasma will be measured on the gamma counter, as described in the following subsections.
All blood samples drawn must be aliquoted 3 times, labeled appropriately, and stored per standard procedure for later measurement of plasma in the qualified gamma counter. All samples will be counted as a group for each patient for each Cycle, no later than 24 hours following the final sample collection.
Collect 5 ml of blood in a BD PPT system (Plasma Protein Preservation Tube-draw volume of 5 mL).
Centrifuge at 18-25° C. at 1100 g for 10 min. The resulting supernatant is designated plasma.
Gamma Counter Measurements: All patient samples must be counted for 60 seconds, with a counting energy window of 102-229 keV.

Where [1] appears, read: Cycle 1, plasma, patient 42-030 excluded.

Each structure is given as a SMILES string. Several values for one entry are separate records, joined by “and”; a condition that tells them apart may be missing. Identical values can stand only once.

As for `O=C(O)CC[C@H](NC(=O)N[C@@H](CCCCNC(=O)CCCCCCC(=O)NCCCC[C@@H](NC(=O)[C@@H](Cc1ccccc1)NC(=O)[C@@H](Cc1ccc(O)c(I)c1)NC(=O)CC[C@H](C(=O)O)N1CCN(CC(=O)O)CCN(CC(=O)O)CCN(CC(=O)O)CC1)C(=O)O)C(=O)O)C(=O)O` [^177Lu-PSMA-I&T, (3S,7 S,26R,29R,32R,37R)-29-benzyl-32-(4-hydroxy-3-iodobenzyl)-5,13,20,28,31,34-hexaoxo-37-(4,7,10-tris(carboxymethyl)-1,4,7,10-tetraazacyclododecan-1-yl)-4,6,12,21,27,30,33-heptaazaheptatriacontane-1,3,7,26,37-pentacarboxylic acid; lutetium-177 (III), metal not drawn], the “Time of Peak Concentration” value (Cycle 1, plasma, individual patients, time of first sample) was 53.00 min and 60.00 min (6×) and 51.00 min (2×) and 58.00 min and 61.00 min (2×) and 50.00 min and 63.00 min and 57.00 min and 55.00 min and 52.00 min (2×) and 68.00 min and 71.00 min and 65.00 min and 33.00 min and 40.00 min and 69.00 min and 56.00 min and 127.00 min and 47.00 min. Also, where the note is “Cycle 1, plasma, individual patients, value at first sample”, the “Peak Concentration Value” was 0.04 fIA/L (10×) and 0.03 fIA/L (4×) and 0.05 fIA/L (7×) and 0.01 fIA/L and 0.06 fIA/L (2×) and 0.02 fIA/L and 0.07 fIA/L (2×). Besides, under setting [1], the “AUC Total, Mean” value came out at 22.77 fIA/L × min; the “AUC Total, max” value amounted to 37.86 fIA/L × min; the “AUC Total, median” value is on record as 20.84 fIA/L × min; the “AUC Total, min” value turned out to be 3.07 fIA/L × min. In addition, under setting [1], the “Peak Concentration Value, Mean” value was determined as 0.04 fIA/L; the “Peak Concentration Value, max” value was determined as 0.07 fIA/L; the “Peak Concentration Value, median” value was 0.04 fIA/L; the “Peak Concentration Value, min” value stood at 0.01 fIA/L. Also, under setting [1], the “Time of Peak Concentration” value turned out to be 33.00 min; the “Time of Peak Concentration, Mean” value is on record as 59.19 min; the “Time of Peak Concentration, max” value turned out to be 127.00 min; the “Time of Peak Concentration, median” value is 59.00 min. For the same molecule, under setting [1], the “Vc, Mean” value was found to be 20.29 L; the “Vc, max” value was 111.78 L; the “Vc, median” value worked out at 16.33 L; the “Vc, min” value is recorded as 9.92 L. In addition, the “time to peak, patient 80-007” value (cycle 1, first post-administration sample acquired with a delay) was found to be 127 min.
